In the NIST ThermoML archive (doi:10.1021/je4009415):
Numbers after ± are expanded uncertainties.

Assay: xn = mol fraction of the nth substance listed
Conditions: Liquid, Vibrating tube method

CCOC(=O)CC [ethyl propanoate] + CCCCCCC
Conditions	mass density [kg/m3]
288.15 K, x1 = 0.0524	695.91 ± 0.26
288.15 K, x1 = 0.0988	703.07 ± 0.27
288.15 K, x1 = 0.1463	710.63 ± 0.28
288.15 K, x1 = 0.1941	718.6 ± 0.3
288.15 K, x1 = 0.2514	728.31 ± 0.31
288.15 K, x1 = 0.3018	737.02 ± 0.33
288.15 K, x1 = 0.3473	745.24 ± 0.34
288.15 K, x1 = 0.4004	755.32 ± 0.36
288.15 K, x1 = 0.4483	764.49 ± 0.38
288.15 K, x1 = 0.5023	775.33 ± 0.4
288.15 K, x1 = 0.5493	785.04 ± 0.42
288.15 K, x1 = 0.6523	807.55 ± 0.47
288.15 K, x1 = 0.7155	821.91 ± 0.51
288.15 K, x1 = 0.7532	830.95 ± 0.53
288.15 K, x1 = 0.7965	841.54 ± 0.56
288.15 K, x1 = 0.8566	856.59 ± 0.61
288.15 K, x1 = 0.9037	868.82 ± 0.64
288.15 K, x1 = 0.9502	881.54 ± 0.68
288.15 K, x1 = 1	895.58 ± 0.72
298.15 K, x1 = 0.0502	687.02 ± 0.26
298.15 K, x1 = 0.0966	693.85 ± 0.27
298.15 K, x1 = 0.1618	704.16 ± 0.29
298.15 K, x1 = 0.24	717.15 ± 0.31
298.15 K, x1 = 0.3102	729.24 ± 0.33
298.15 K, x1 = 0.401	745.76 ± 0.36
298.15 K, x1 = 0.4502	755.12 ± 0.38
298.15 K, x1 = 0.5047	765.87 ± 0.4
298.15 K, x1 = 0.598	785.24 ± 0.44
298.15 K, x1 = 0.6478	796.11 ± 0.46
298.15 K, x1 = 0.6968	807.1 ± 0.49
298.15 K, x1 = 0.7456	818.46 ± 0.52
298.15 K, x1 = 0.7933	829.93 ± 0.55
298.15 K, x1 = 0.8547	845.07 ± 0.6
298.15 K, x1 = 0.9029	857.64 ± 0.63
298.15 K, x1 = 0.952	870.77 ± 0.67
298.15 K, x1 = 1	884.15 ± 0.71
308.15 K, x1 = 0.0489	677.99 ± 0.26
308.15 K, x1 = 0.0972	685.13 ± 0.27
308.15 K, x1 = 0.1622	695.08 ± 0.29
308.15 K, x1 = 0.2109	702.86 ± 0.3
308.15 K, x1 = 0.2409	707.93 ± 0.31
308.15 K, x1 = 0.3084	719.36 ± 0.33
308.15 K, x1 = 0.352	727.08 ± 0.34
308.15 K, x1 = 0.4029	736.28 ± 0.36
308.15 K, x1 = 0.44	743.31 ± 0.37
308.15 K, x1 = 0.5033	755.53 ± 0.39
308.15 K, x1 = 0.5515	765.29 ± 0.41
308.15 K, x1 = 0.6049	776.34 ± 0.44
308.15 K, x1 = 0.6546	787.12 ± 0.46
308.15 K, x1 = 0.6957	796.27 ± 0.49
308.15 K, x1 = 0.7472	808.1 ± 0.52
308.15 K, x1 = 0.8001	820.72 ± 0.55
308.15 K, x1 = 0.8549	834.09 ± 0.59
308.15 K, x1 = 0.8932	843.97 ± 0.62
308.15 K, x1 = 0.949	858.62 ± 0.66
308.15 K, x1 = 1	872.62 ± 0.7
318.15 K, x1 = 0.0535	669.87 ± 0.27
318.15 K, x1 = 0.0979	676.31 ± 0.27
318.15 K, x1 = 0.1459	683.47 ± 0.28
318.15 K, x1 = 0.2045	692.71 ± 0.3
318.15 K, x1 = 0.262	702.04 ± 0.31
318.15 K, x1 = 0.3009	708.59 ± 0.32
318.15 K, x1 = 0.3494	717.01 ± 0.34
318.15 K, x1 = 0.4057	727.08 ± 0.35
318.15 K, x1 = 0.4487	735.05 ± 0.37
318.15 K, x1 = 0.5052	745.9 ± 0.39
318.15 K, x1 = 0.552	755.16 ± 0.41
318.15 K, x1 = 0.5969	764.38 ± 0.43
318.15 K, x1 = 0.6529	776.27 ± 0.46
318.15 K, x1 = 0.7022	787.15 ± 0.48
318.15 K, x1 = 0.7467	797.21 ± 0.51
318.15 K, x1 = 0.7935	808.2 ± 0.54
318.15 K, x1 = 0.8452	820.6 ± 0.57
318.15 K, x1 = 0.8929	832.6 ± 0.61
318.15 K, x1 = 0.9484	847.05 ± 0.65
318.15 K, x1 = 1	861.08 ± 0.68
328.15 K, x1 = 0.0528	660.86 ± 0.27
328.15 K, x1 = 0.1065	668.58 ± 0.28
328.15 K, x1 = 0.1619	676.84 ± 0.29
328.15 K, x1 = 0.2123	684.53 ± 0.3
328.15 K, x1 = 0.2511	690.83 ± 0.31
328.15 K, x1 = 0.3081	700.22 ± 0.32
328.15 K, x1 = 0.3519	707.73 ± 0.34
328.15 K, x1 = 0.4084	717.71 ± 0.35
328.15 K, x1 = 0.4478	724.83 ± 0.37
328.15 K, x1 = 0.5074	736.13 ± 0.39
328.15 K, x1 = 0.5522	744.86 ± 0.41
328.15 K, x1 = 0.6033	755.17 ± 0.43
328.15 K, x1 = 0.6454	764.1 ± 0.45
328.15 K, x1 = 0.7023	776.34 ± 0.48
328.15 K, x1 = 0.7443	785.77 ± 0.5
328.15 K, x1 = 0.7989	798.4 ± 0.53
328.15 K, x1 = 0.8593	812.97 ± 0.57
328.15 K, x1 = 0.8983	822.61 ± 0.6
328.15 K, x1 = 0.9494	835.87 ± 0.64
328.15 K, x1 = 1	849.41 ± 0.67
